# Experimental data taken from patent US6403831B1, “Substituted benzylidene indenyl formamides, acetamides and propionamides” (Cell Pathways, Inc., priority 1996, dated 2002).
# Target: T1, COX I (Ovis aries, UniProt P05979)
# T1 construct: The COX was purified form ram seminal vesicles; from tissue; host or cells: ram seminal vesicles
# T1 sequence (P05979 25-600): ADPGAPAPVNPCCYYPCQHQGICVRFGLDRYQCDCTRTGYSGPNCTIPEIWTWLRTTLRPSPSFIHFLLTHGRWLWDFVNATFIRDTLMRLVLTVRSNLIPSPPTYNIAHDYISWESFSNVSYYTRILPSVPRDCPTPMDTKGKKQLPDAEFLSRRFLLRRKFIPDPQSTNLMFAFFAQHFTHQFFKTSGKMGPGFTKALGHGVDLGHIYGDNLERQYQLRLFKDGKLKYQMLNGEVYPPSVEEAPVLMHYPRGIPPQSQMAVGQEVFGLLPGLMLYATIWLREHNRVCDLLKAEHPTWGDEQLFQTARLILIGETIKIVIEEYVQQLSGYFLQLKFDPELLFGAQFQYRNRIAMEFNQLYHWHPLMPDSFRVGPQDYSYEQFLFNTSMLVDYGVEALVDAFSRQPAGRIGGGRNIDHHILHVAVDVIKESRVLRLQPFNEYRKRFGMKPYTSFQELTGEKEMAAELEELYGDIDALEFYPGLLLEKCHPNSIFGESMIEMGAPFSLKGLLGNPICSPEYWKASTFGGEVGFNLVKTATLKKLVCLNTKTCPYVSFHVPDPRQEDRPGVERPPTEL
# Experiment: Cyclooxygenase (COX) inhibition, purified COX
# Type: biochemical
# Settings: 100 μM test compound; purified COX from ram seminal vesicles, arachidonic acid 100 μM
# Procedure: Compounds of this invention, as well as a positive control, sulindac sulfide were to determine whether they inhibited the production of cyclooxygenase (see Table 5 below).
# COX catalyzes the formation of prostaglandins and thromboxane by the oxidative metabolism of arachidonic acid. The compounds of this invention were evaluated for inhibitory effects on purified COX. The COX was purified form ram seminal vesicles, as described by Boopathy, R. and Balasubramanian, J. 239:371-377, 1988. COX activity was assayed as described by Evans, A. T., et al., “Actions of cannabis constituents on enzymes of arachidonate metabolism anti-flammatory potential,” Biochem. Pharmacol., 36:2035-2037, 1987. Briefly, purified COX was incubated with arachidonic acid (100 μM) for 2.0 min at 37° C. in the presence or absence of test compounds. The assay was terminated buy the addition of TCA, and COX activity was determined by absorbance at 530 nm.
row,SMILES,COX I % Inhibition (100 μM) [%]
1,"COc1cc(/C=C2/C(C)=C(CC(=O)NCc3ccco3)c3cc(F)ccc32)cc(OC)c1OC [Example 29, (Z)-5-fluoro-2-methyl-1-(3,4,5-trimethoxybenzylidene)-3-(N-furfuryl)-indenylacetamide]",<25
2,"COc1cc(/C=C2/C(C)=C(CC(=O)NCc3cccc(I)c3)c3cc(F)ccc32)cc(OC)c1OC [Example 2, (Z)-5-fluoro-2-methyl-1-(3,4,5-trimethoxybenzylidene)-3-(N-3-iodobenzyl)-indenylacetamide]",<25
3,"CCN(CC)C(=O)CC1=C(C)/C(=C/c2cc(OC)c(OC)c(OC)c2)c2ccc(F)cc21 [Example 24, (Z)-5-fluoro-2-methyl-1-(3,4,5 trimethoxybenzylidene)-3-(N,N-diethyl)-indenylacetamide]",<25
4,COc1cc(/C=C2/C(C)=C(CC(=O)NCc3ccncc3)c3cc(F)ccc32)cc(OC)c1OC [Example 50],29.2
5,"COc1cc(/C=C2/C(C)=C(CC(=O)NCc3cccnc3)c3cc(F)ccc32)cc(OC)c1OC [Example 49, (Z)-5 fluoro-2-methyl-1-(3,4,5 trimetboxybenzylidene)-3-(N-3-pyridinyl)-idenylacetamide]",25
6,"COc1cccc(CNC(=O)CC2=C(C)/C(=C/c3cc(OC)c(OC)c(OC)c3)c3ccc(F)cc32)c1OC [Example 18, (Z)-5 fluoro-2-methyl-1-(3,4,5-trimethoxybenzylidene)-3-(N-2,3-dimethoxybenzyl)-indenylacetamide]",<25
7,"COc1cc(/C=C2/C(C)=C(CC(=O)NCc3ccc(F)c(F)c3)c3cc(F)ccc32)cc(OC)c1OC [Example 9, (Z)-5-fluoro-2-methyl-1-(3,4,5-trimethoxybenzylidene)-3-(N-3,4-difluorobenzyl)-indenylacetamide]",<25
8,"COc1cc(/C=C2\C(C)=C(CC(=O)NCc3ccccc3)c3cc(F)ccc32)cc(OC)c1OC [Example 52, (E)-5-Fluoro-2-methyl-1-(3,4,5-trimethoxybenzylidene)-3-(N-benzyl)-indenylacetamide]",<25
9,COc1cc(/C=C2/C(C)=C(CC(=O)NCc3cccc(Cl)c3)c3cc(F)ccc32)cc(OC)c1OC [Example 3],<35
10,"COc1cc(/C=C2/C(C)=C(CC(=O)NCC3CC3)c3cc(F)ccc32)cc(OC)c1OC [Example 30, (Z)-5-fluoro-2-methyl-1-(3,4,5-trimethoxybenzylidene)-3-(N-cyclopropylmethyl)-indenylacetamide]",<25
11,"COc1cc(/C=C2/C(C)=C(CC(=O)NCc3ccc(N(C)C)cc3)c3cc(F)ccc32)cc(OC)c1OC [Example 21, (Z)-5-fluoro-2-methyl-1-(3,4,5-trimethoxybenzylidene)-3-(N-4-(dimethylamino)-benzyl)-indenylacetamide]",36.5
12,"COc1cc(/C=C2/C(C)=C(CC(=O)NC(C)(C)C)c3cc(F)ccc32)cc(OC)c1OC [Example 25, (Z)-5-fluoro-2-methyl-1-(3,4,5-trimethoxybenzylidene)-3-(N-tertbutyl)-indenylacetamide]",25
13,"COc1cc(/C=C2/C(C)=C(CC(=O)NCc3ccc(Cl)c(Cl)c3)c3cc(F)ccc32)cc(OC)c1OC [Example 5, (Z)-5-fluoro-2-methyl-1-(3,4,5-trimethoxybenzylidene)-3-(N-3,4-dichlorobenzyl)-indenylacetamide]",<25
14,"COc1cc(/C=C2/C(C)=C(CC(=O)NCc3cc(F)cc(C(F)(F)F)c3)c3cc(F)ccc32)cc(OC)c1OC [Example 11, (Z)-5-fluoro-2-methyl-1-(3,4,5-trimethoxybenzylidene)-3-(N-3-fluoro-5-(trifluoromethyl)-benzyl)-indenylacetamide]",<25
15,"COc1cc(/C=C2/C(C)=C(CC(=O)N(C3CCCCC3)C3CCCCC3)c3cc(F)ccc32)cc(OC)c1OC [Example 26, (Z)-5-fluoro-2-methyl-1-(3,4,5-trimethoxybenzylidene)-3-(N,N-dicyc1ohexyl)-indenylacetamide]",28.1
16,"COc1cc(/C=C2/C(C)=C(CC(=O)NCc3c(F)cccc3F)c3cc(F)ccc32)cc(OC)c1OC [Example 10, (Z)-5-fluoro-2-methyl-1-(3,4,5-trimethoxybenzylidene)-3-(N-2,6-difluorobenzyl)-indenylacetamide]",<25
17,"COc1cc(/C=C2/C(C)=C(CC(=O)NCc3ccc(F)cc3F)c3cc(F)ccc32)cc(OC)c1OC [Example 6, (Z)-5-fluoro-2-methyl-1-(3,4,5-trimethoxybenzylidene)-3-(N-2,4-difluorobenzyl)-indenylacetamide]",<25
18,"COc1ccc(CNC(=O)CC2=C(C)/C(=C/c3cc(OC)c(OC)c(OC)c3)c3ccc(F)cc32)cc1 [Example 14, (Z)-5-fluoro-2-methyl-1-(3,4,5-trimethoxybenzylidene)-3-(N-4-methoxybenzyl)-indenylacetamide]",<25
19,"COc1cc(/C=C2/C(C)=C(CC(=O)NCc3cccc(F)c3)c3cc(F)ccc32)cc(OC)c1OC [Example 7, (Z)-5-fluoro-2-methyl-1-(3,4,5-trimethoxybenzylidene)-3-(N-3-fluorobenzyl)-indenylacetamide]",<25
20,"COc1cc(CNC(=O)CC2=C(C)/C(=C/c3cc(OC)c(OC)c(OC)c3)c3ccc(F)cc32)cc(OC)c1 [Example 16, (Z)-5-fluoro-2-methyl-1-(3,4,5-trimethoxybenzylidene)-3-(N-3,5-dimethoxybenzyl)-indenylacetamide]",<25
21,"COc1cc(/C=C2/C(C)=C(CC(=O)NCc3ccc(S(N)(=O)=O)cc3)c3cc(F)ccc32)cc(OC)c1OC [Example 20, (Z)-5-fluoro-2-methyl-1-(3,4,5-trimethoxybenzylidene)-3-(N-4-sulfonamidobenzyl)-indenylacetamide]",36.5
22,"COc1ccc(CNC(=O)CC2=C(C)/C(=C/c3cc(OC)c(OC)c(OC)c3)c3ccc(F)cc32)cc1OC [Example 17, (Z)-5-fluoro-2-methyl-1-(3,4,5-trimethoxybenzylidene)-3-(N-3,4-dimethoxybenzyl)-indenylacetamide]",<25
